The source of these data is patent publication US7767803B2, “Stabilized aptamers to PSMA and their use as prostate cancer therapeutics” (Archemix Corp., priority 2002, dated 2010).

One data set deals with LNCaP cells. Nature of the data set: Cell proliferation assay, chemiluminescent detection of BrdU. The class given is cell-based. The conditions noted are these: for effect on cell viability / cell killing (in words): LNCaP cells.
Another data set deals with T1, ECD PSMA (Homo sapiens, UniProt Q04609).
T1 construct: N-terminal linker […]; made in house; host or cells: 293 Freestyle cells, pSecTag2B vector
T1 sequence (Q04609 with tags, fused parts or gaps): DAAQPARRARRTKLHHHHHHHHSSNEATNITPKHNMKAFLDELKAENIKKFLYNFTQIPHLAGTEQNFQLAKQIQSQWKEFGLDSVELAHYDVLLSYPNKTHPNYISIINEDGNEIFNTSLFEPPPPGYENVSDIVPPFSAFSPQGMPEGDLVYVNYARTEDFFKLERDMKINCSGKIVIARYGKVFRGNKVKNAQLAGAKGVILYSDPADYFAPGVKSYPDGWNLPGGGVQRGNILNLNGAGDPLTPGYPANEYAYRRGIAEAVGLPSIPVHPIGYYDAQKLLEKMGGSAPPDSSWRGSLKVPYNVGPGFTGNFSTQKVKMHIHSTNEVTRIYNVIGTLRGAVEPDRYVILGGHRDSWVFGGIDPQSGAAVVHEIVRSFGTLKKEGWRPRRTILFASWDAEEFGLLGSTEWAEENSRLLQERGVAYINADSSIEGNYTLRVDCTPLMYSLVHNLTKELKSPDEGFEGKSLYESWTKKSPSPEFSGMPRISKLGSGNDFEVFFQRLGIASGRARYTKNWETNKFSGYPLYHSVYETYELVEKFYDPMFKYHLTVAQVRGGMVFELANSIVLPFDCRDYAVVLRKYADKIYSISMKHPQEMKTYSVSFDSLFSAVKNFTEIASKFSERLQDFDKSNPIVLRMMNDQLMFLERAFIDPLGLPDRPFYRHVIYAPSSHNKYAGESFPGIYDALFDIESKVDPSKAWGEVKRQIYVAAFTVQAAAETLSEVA
Nature of the data set: Dot blot binding assay (nitrocellulose filtration). The method, then:
The binding reactions are then analyzed by nitrocellulose filtration using a Minifold I dot-blot, 96-well vacuum filtration manifold (Schleicher & Schuell, Keene, N.H.) (dot blot binding assay). A three-layer filtration medium is used, consisting (from top to bottom) of Protran nitrocellolose (Schleicher & Schuell), Hybond-P nylon (Amersham Biosciences, Piscataway, N.J.) and GB002 gel blot paper (Schleicher & Schuell). The nitrocellulose layer, which selectively binds protein over nucleic acid, preferentially retains the anti-PSMA aptamer in complex with a protein ligand, while non-complexed anti-PSMA aptamer passes through the nitrocellulose and adhered to the nylon (the gel blot paper is included as a supporting medium for the other filters). Following filtration, the filter layers are separated, dried and exposed on a phosphor screen (Amersham Biosciences) and quantified using a Storm 860 Phosphorimager® blot imaging system (Amersham Biosciences) and KD values are calculated by fitting the equation y=(max/(1+K/protein))+yint.
Dot Blot Binding Analysis. […]
In order to identify the core structural elements required for ARC955 binding to PSMA, the 3′-boundaries of the clone was determined through alkaline hydrolysis. […] The KD and maximum % bound for the 3 minimized constructs with the overall highest PSMA affinity, as determined by a dot blot binding assay, are listed in Table 4. […]

In the next data set the test system is LNCaP cells (PSMA+). Nature of the data set: LNCaP FACS assay with fluorescein-labeled aptamers. The data set is classed as cell-based. The conditions noted are these: FACS analysis. An excerpt:
The parent A9 aptamer sequence (SEQ ID NO 168) is predicted by the MFOLD algorithm implemented in the RNAStructure program v. 4.11 to fold into a partially mismatched hairpin that encompasses almost the entire molecule. A series of truncated constructs were designed, in which self-pairing nucleotides from the 5′- and 3′-ends were simultaneously removed, chemically synthesized using conventional solid-phase phosphoramidite-based synthesis, and tested. In the design of some of the truncated A9 aptamers, see e.g. ARC591, additional bases were added to the 3′ and 5′ ends of the truncate, where the bases added to the 5′ end were capable of forming Watson-Crick base pairs with those added to the 3′ end thereby increasing the length of stem structure. Truncated aptamers were 5′-labeled with fluorescein and tested for binding in to LNCaP cells (PSMA+) in the FACS assay described below. PC-3 cells (PSMA−) were used as a control cell line. The sequences of the truncated A9 aptamers designed are listed below in Table 6 below.
To accomplish 5′-fluorescein labeling, aptamers were synthesized with a 5′-amine and then modified post-solid phase synthesis. The required aptamer was dissolved to a concentration of ˜10-50 mg/mL in 25 mM phosphate buffer, pH 7.4. The small molecule, NHS ester of fluorescein, was dissolved to a concentration of 10 mg/mL in DMSO. 1.5 Molar equivalents were added to the aptamer and the solution vortexed for ˜15 seconds. The reaction was allowed to proceed in the dark at room temperature for 1 hour and then a 5 μL aliquot was withdrawn, diluted with water and analyzed by HPLC. Additional equivalents of the small molecule were added until the reaction was complete by HPLC. Excess small molecules were removed by gel filtration.
To prepare aptamers for the FACS assay, PSMA aptamers were serially diluted (0-1 uM) in FACS buffer (1×DPBS w/Ca^++/Mg^++ (Gibco, Carlsbad, Calif.) supplemented with 10 mg/mL salmon sperm DNA & 0.2% Na Azide), in a V-bottom 96 well plate, at the concentrations to be tested. LNCaP and PC-3 cells (ATCC, Manassas, Va.) were harvested with trypsin, and 200,000 cells/well were counted, washed once with 1×DPBS (with Ca^++ and Mg^++) and resuspended in 200 μl of FACS Buffer. The 200 μl of cells in FACS buffer were added to individual wells of a new 96 well plate, pelleted by centrifugation (1300 rpm for 5 minutes), and resuspended in 100 μl of the appropriate concentration of diluted aptamer. FACS buffer, c-PSMA antibody (3C6) (Northwest Biotherapeutics, Bothell, Wash., Cat #: 60-5002) and an irrelevant fluorescein isothiocyanate (“FITC”) mouse IgG1 isotype control antibody (BD Pharmingen, San Diego, Calif., Cat#: 554679) were used as controls. The wells of aptamer/cell mixture were incubated at room temperature for 20-30 minutes. […]
In general terms: In flow cytometry, cells or beads pass a laser one at a time.

In a further data set the target is PSMA NAALADase activity (Homo sapiens, UniProt Q04609). Nature of the data set: NAALADase inhibition assay. The data set is classed as biochemical. The conditions noted are these: relative to parent aptamer. The method, then:
These point mutant constructs were assessed for activity in terms of inhibition of PSMA NAALADase activity. The NAALADase assay was performed in 96 well format. PSMA aptamers were serially diluted in 1× reaction buffer (40 mM Tris-HCl, pH 7.4, 0.1 mM ZnSO4, 0.1 mg/mL BSA) in a standard 96 well plate to be tested at a final concentration range from 30 pM to 1 μM. The enzyme was prepared by diluting 30 μL of 100 nM PSMA into 8 mL of reaction buffer, and kept cool on ice. The substrate was prepared by adding 19 μl of NAAG [Glutamate-3,4-^3H], 50.8 Ci/mmol, 19.7 μM (Perkin-Elmer, Wellesley, Mass., NET1082) into 2.2 mL of reaction buffer.
Following preparation of all reagents, 4 μl of each serially diluted aptamer was added to a separate 96 well plate (the reaction plate). 76 μl of diluted enzyme was added to the corresponding wells containing aptamer. 80 μl of reaction buffer was added to one column of wells to serve as a background control. The diluted substrate and reaction plate were then moved to a room at 37° C. and allowed to equilibrate for 10 minutes. […]
To separate the cleavage products, […] and Glutamate, from the substrate, an AG 1-×8, 200-400 mesh, formate resin (BioRad, Hercules, Calif., # 140-1454) was used. […] The plate was sealed and read using a Packard Topcount Microplate Scintillation Counter. […]

Entries after “also recorded” stand apart in the source; their conditions may differ. {C6-FAM} = fluorescein (C6-FAM) label; [invdT] = inverted (3'-3') thymidine; d = 2'-deoxy (DNA); m = 2'-O-methyl; r = 2'-OH (RNA); f = 2'-fluoro

Chain of PSMA NAALADase activity (Q04609 with tags, fused parts or gaps limits assumed): as the sequence (Q04609 with tags, fused parts or gaps) above

Consider `O=c1c(-c2ccc(O)cc2)coc2cc(O)cc(O)c12` [Genistein, reference compound], for which, in the data set on LNCaP cells (positive control, 25 μM dose), the “cytotoxicity at 25 μM” value is given as “partial inhibition”. Moreover, in the data set with LNCaP cells (positive control, 150 μM), the “cytotoxicity at 150 μM” value was “complete cell killing”.

“AGAGGAGAGAACGUUCUACUAUGGGUGGCUGGGAGGGG (2'-O-methyl at ACU, RNA at G, backbone not given here) [ARC1091, rGmH minimer of ARC955]”: the “PSMA binding (in words)” value with ECD PSMA was “maintains the full binding capacity”.

As for “C6 FAM-GGAGGACCGAAAAAGACCUGACUUCUAUACUAAGUCUACGUUCCUCC-3T (GGAGGACCGAAAAAGACCUGACUUCUAUACUAAGUCUACGUUCCUCCT; 5' FAM label and 3' inverted dT, sugar chemistry not clearly assigned, further chemistry not given here) [ARC710, fluorescently labeled A9 minimer]”, the “competition with fluorescently labeled anti-PSMA antibody for binding to the surface of LNCaP cells” value with LNCaP cells (PSMA+) is “effectively competes”.

For “CUACUACACAUGGGUCGGGUGAGUGGCAAAGGAAUAGUAG (2'-O-methyl at ACU, RNA at G, backbone not given here) [ARC725]”, the “PSMA binding (in words)” value with ECD PSMA was “no intrinsic PSMA binding; also recorded: not to exhibit PSMA binding”.

Consider “UAAUACGACUCACUAUAGGGAGAGGAGAGAACGUUCUACUAUGGGUGGCUGGGAGGGGAAGAGGGAGUAGGUCGAUCGAUCGAUCAUCGAUG [ARC955]”, for which the “effect on cell viability / cell killing (in words)” value in the data set on LNCaP cells is given as “no intrinsic effect on cell viability at any concentration”.

Consider “c6 fam-mCmGmGmAfCfCmGAAAAmAmGmAmCfCfUGAfCfUfUfCfUAfUAfCfUAAmGmUmCmUAfCmGfUmUmCmCmG-3T (CGGACCGAAAAAGACCUGACUUCUAUACUAAGUCUACGUUCCG; sugars from the 5' end mmmmffmrrrrmmmmffrrfffffrfrffrrmmmmrfmfmmmm, [invdT] at 3' end, 5' {C6-FAM}, backbone not given here) [ARC711, fluorescently labeled A9 minimer]”, for which, in the data set with LNCaP cells (PSMA+), the “competition with fluorescently labeled anti-PSMA antibody for binding to the surface of LNCaP cells” value is reported as “effectively competes”.

Take “mCmGmGmACmGAAAAmAmGmAmCfCfUGAfCfUfUfCfUAfUAfCfUAAmGmUmCmUAfCmGfUmUmCmCmG-3T [ARC942]”: the “effect on cell viability / cell killing (in words)” value with LNCaP cells is on record as “no intrinsic effect on cell viability at any concentration”.

Turning to “mCmGmGmAfCfCmGdAdAfCmAmAmGmGmCfCfU-s-dGmAfCfUfUfCfUmAfUmAfCfUdAmAmGmCmCmUmAfCmGfUmUmCmCmG-3T (CGGACCGAACAAGGCCUGACUUCUAUACUAAGCCUACGUUCCG; sugars from the 5' end mmmmffmddfmmmmmffdmfffffmfmffdmmmmmmfmfmmmm, [invdT] at 3' end, backbone not given here; internal -s- element between two units) [ARC1725]”, the “NAALADase inhibition activity (in words)” value in the data set with PSMA NAALADase activity was “retained full activity”.
